Experimental findings from patent US20260297081A1, “COMPOUNDS AND METHODS OF TREATING CANCERS” (Cullgen Inc., priority 2023, published 2026) are described below.

The target of this assay is CDK4 (Homo sapiens, UniProt P11802+Q16531). In words: CDK4 percentage degradation in Calu-1 cells (Table 6). It counts as cell-based. As to conditions: 16 hours; for inhibition at 0.04 µM: 40 nM; for inhibition at 0.2 µM: 200 nM. On the set-up: Cells that express cyclin D1-3 and CDK4/6 proteins were treated with heterobifunctional compounds; endogenous in cells; host or cells: Calu-1. A digest of the protocol:
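Percentage degradation of Cyclin D1 and CDK4 derived from densitometry of ECL Western blots on lysates of Calu-1 cells. Treatment was 16 h with compound at either 40 nM or 200 nM.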

A value given as a limit tells only on which side of the number the result lay.

Sequence of CDK4 (P11802 2-303 limits assumed): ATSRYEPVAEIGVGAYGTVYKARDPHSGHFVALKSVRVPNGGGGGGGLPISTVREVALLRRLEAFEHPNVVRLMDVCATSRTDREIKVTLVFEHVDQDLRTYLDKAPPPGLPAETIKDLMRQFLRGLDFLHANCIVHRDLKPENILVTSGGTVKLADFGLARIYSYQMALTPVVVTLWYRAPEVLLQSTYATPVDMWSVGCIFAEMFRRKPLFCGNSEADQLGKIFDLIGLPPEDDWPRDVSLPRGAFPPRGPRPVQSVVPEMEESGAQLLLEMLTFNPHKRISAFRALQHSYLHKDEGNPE
Sequence of CDK4 (P24385 whole entry partner): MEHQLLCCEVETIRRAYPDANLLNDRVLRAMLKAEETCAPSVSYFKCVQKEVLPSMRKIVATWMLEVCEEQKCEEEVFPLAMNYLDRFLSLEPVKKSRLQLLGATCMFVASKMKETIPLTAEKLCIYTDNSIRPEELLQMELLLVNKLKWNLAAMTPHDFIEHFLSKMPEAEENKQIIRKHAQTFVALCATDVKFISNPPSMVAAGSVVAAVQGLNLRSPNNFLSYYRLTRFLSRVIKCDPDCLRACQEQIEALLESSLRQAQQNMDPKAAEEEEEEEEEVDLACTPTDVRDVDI
Sequence of CDK4 (Q16531 2-1140 limits assumed): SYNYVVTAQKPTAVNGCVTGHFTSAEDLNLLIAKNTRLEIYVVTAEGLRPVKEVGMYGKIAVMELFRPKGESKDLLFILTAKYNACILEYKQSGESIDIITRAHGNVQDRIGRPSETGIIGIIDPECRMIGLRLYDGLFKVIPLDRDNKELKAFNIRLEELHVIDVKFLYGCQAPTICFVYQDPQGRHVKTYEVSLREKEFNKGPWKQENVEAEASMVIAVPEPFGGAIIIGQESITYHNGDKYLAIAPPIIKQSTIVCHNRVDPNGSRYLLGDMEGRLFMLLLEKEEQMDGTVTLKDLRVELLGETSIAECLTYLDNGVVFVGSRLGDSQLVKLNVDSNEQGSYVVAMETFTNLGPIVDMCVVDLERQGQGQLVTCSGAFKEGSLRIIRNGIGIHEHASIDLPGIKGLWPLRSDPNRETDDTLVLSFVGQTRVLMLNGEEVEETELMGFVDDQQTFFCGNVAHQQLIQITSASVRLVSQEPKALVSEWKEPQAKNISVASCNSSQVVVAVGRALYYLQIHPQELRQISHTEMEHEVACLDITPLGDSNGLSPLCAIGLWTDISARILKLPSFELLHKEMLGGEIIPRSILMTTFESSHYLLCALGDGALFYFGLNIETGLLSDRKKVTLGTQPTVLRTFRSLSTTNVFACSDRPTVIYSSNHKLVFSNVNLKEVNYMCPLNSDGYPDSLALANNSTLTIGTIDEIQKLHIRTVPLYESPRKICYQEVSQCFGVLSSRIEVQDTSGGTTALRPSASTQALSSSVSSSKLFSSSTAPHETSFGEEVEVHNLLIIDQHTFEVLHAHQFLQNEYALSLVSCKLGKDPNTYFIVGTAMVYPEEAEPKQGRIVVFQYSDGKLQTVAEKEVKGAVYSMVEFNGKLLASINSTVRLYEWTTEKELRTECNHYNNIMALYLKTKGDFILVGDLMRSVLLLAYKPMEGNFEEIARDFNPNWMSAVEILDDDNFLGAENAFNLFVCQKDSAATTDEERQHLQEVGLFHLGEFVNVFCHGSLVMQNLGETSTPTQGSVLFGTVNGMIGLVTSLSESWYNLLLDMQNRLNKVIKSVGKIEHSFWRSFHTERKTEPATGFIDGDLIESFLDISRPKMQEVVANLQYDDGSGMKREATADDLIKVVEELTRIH

For the compound `CNc1ccc(C(=O)NC2CCC(N(C)C)CC2)c(NCCCCCNC(=O)CN2CCN(c3ccc(Nc4ncc5c(C)c(C(C)=O)c(=O)n(C6CCCC6)c5n4)nc3)CC2)n1` (stereo not shown) [CPD-48, 2-((5-(2-(4-(6-((6-Acetyl-8-cyclopentyl-5-methyl-7-oxo-7,8-dihydropyrido[2,3-d]pyrimidin-2-yl)amino)pyridin-3-yl)piperazin-1-yl)acetamido)pentyl)amino)-N-(4-(dimethylamino)cyclohexyl)-6-(methylamino)nicotinamide], the inhibition (commonly the percentage by which the read-out fell short of the control) at 0.04 µM was under 30% and the inhibition at 0.2 µM is under 30%.

For the compound `[2H]C([2H])([2H])Nc1ccc(C(=O)Nc2cc(C)on2)c(NC2CCN(C(=O)CN3CCN(c4ccc(Nc5ncc6c(C)c(C(C)=O)c(=O)n(C7CCCC7)c6n5)nc4)CC3)CC2)n1` [CPD-231, 2-((1-(2-(4-(6-((6-acetyl-8-cyclopentyl-5-methyl-7-oxo-7,8-dihydropyrido[2,3-d]pyrimidin-2-yl)amino)pyridin-3-yl)piperazin-1-yl)acetyl)piperidin-4-yl)amino)-6-((methyl-d3)amino)-N-(5-methylisoxazol-3-yl)nicotinamide], the inhibition at 0.04 µM fell in the range of 30 to 50% and the inhibition at 0.2 µM is 50 to 80%. The compound `CNc1ccc(C(=O)Nc2ccc(N(C)C)nn2)c(NC2CCN(CCNC(=O)CN3CCN(c4ccc(Nc5ncc6c(C)c(C(C)=O)c(=O)n(C7CCCC7)c6n5)nc4)CC3)C2)n1` (stereo not shown) [CPD-106, 2-((1-(2-(2-(4-(6-((6-Acetyl-8-cyclopentyl-5-methyl-7-oxo-7,8-dihydropyrido[2,3-d]pyrimidin-2-yl)amino)pyridin-3-yl)piperazin-1-yl)acetamido)ethyl)pyrrolidin-3-yl)amino)-N-(6-(dimethylamino)pyridazin-3-yl)-6-(methylamino)nicotinamide] gave an inhibition at 0.04 µM of 30 to 50% and an inhibition at 0.2 µM of 50 to 80%. `CNc1ccc(C(=O)Nc2ccc(N(C)C)nn2)c(NC2CCC(NC(=O)CN3CCN(c4ccc(Nc5ncc6c(C)c(C(C)=O)c(=O)n(C7CCCC7)c6n5)nc4)CC3)CC2)n1` (stereo not shown) [CPD-130, 2-((4-(2-(4-(6-((6-Acetyl-8-cyclopentyl-5-methyl-7-oxo-7,8-dihydropyrido[2,3-d]pyrimidin-2-yl)amino)pyridin-3-yl)piperazin-1-yl)acetamido)cyclohexyl)amino)-N-(6-(dimethylamino)pyridazin-3-yl)-6-(methylamino)nicotinamide] gave an inhibition at 0.04 µM of 50 to 80% and an inhibition at 0.2 µM of 50 to 80%.

`[2H]C([2H])([2H])Nc1ccc(C(=O)Nc2cn(C)c(C3CC3)n2)c(NC2CCN(C(=O)CN3CCN(c4ccc(Nc5ncc6c(C)c(C(C)=O)c(=O)n(C7CCCC7)c6n5)nc4)CC3)CC2)n1` [CPD-236, 2-((1-(2-(4-(6-((6-acetyl-8-cyclopentyl-5-methyl-7-oxo-7,8-dihydropyrido[2,3-d]pyrimidin-2-yl)amino)pyridin-3-yl)piperazin-1-yl)acetyl)piperidin-4-yl)amino)-N-(2-cyclopropyl-1-methyl-1H-imidazol-4-yl)-6-((methyl-d3)amino)nicotinamide] showed an inhibition at 0.04 µM of 30 to 50% and an inhibition at 0.2 µM of 50 to 80%. Take `CNc1ccc(C(=O)Nc2ccc(N(C)C)nn2)c(Nc2cnn(CCNC(=O)CN3CCN(c4ccc(Nc5ncc6c(C)c(C(C)=O)c(=O)n(C7CCCC7)c6n5)nc4)CC3)n2)n1` [CPD-25, 2-((2-(2-(2-(4-(6-((6-Acetyl-8-cyclopentyl-5-methyl-7-oxo-7,8-dihydropyrido[2,3-d]pyrimidin-2-yl)amino)pyridin-3-yl)piperazin-1-yl)acetamido)ethyl)-2H-1,2,3-triazol-4-yl)amino)-N-(6-(dimethylamino)pyridazin-3-yl)-6-(methylamino)nicotinamide]: the inhibition at 0.04 µM is under 30% and the inhibition at 0.2 µM was 50 to 80%. On to `CCc1ccc(C(=O)Nc2cc(C)n(C)n2)c(NC2CC(CNC(=O)CN3CCN(c4ccc(Nc5ncc6c(C)c(C(C)=O)c(=O)n(C7CCCC7)c6n5)nc4)CC3)C2)n1` (stereo not shown) [CPD-210, 2-((3-((2-(4-(6-((6-acetyl-8-cyclopentyl-5-methyl-7-oxo-7,8-dihydropyrido[2,3-d]pyrimidin-2-yl)amino)pyridin-3-yl)piperazin-1-yl)acetamido)methyl)cyclobutyl)amino)-N-(1,5-dimethyl-1H-pyrazol-3-yl)-6-ethylnicotinamide], for which the inhibition at 0.04 µM was in the range of 30 to 50% and the inhibition at 0.2 µM lay in the range of 50 to 80%. Turning to `CNc1ccc(C(=O)Nc2ccc(N(C)C)nn2)c(N2CCC(CCNC(=O)CN3CCN(c4ccc(Nc5ncc6c(C)c(C(C)=O)c(=O)n(C7CCCC7)c6n5)nc4)CC3)CC2)n1` [CPD-42, 2-(4-(2-(2-(4-(6-((6-Acetyl-8-cyclopentyl-5-methyl-7-oxo-7,8-dihydropyrido[2,3-d]pyrimidin-2-yl)amino)pyridin-3-yl)piperazin-1-yl)acetamido)ethyl)piperidin-1-yl)-N-(6-(dimethylamino)pyridazin-3-yl)-6-(methylamino)nicotinamide], the inhibition at 0.04 µM is under 30% and the inhibition at 0.2 µM is under 30%. `CNc1ccc(C(=O)Nc2ccc(N(C)C)c(C3CC3)n2)c(NC2CC3(CC(NC(=O)CN4CCN(c5ccc(Nc6ncc7c(C)c(C(C)=O)c(=O)n(C8CCCC8)c7n6)nc5)CC4)C3)C2)n1` (stereo not shown) [CPD-177, 2-((6-(2-(4-(6-((6-acetyl-8-cyclopentyl-5-methyl-7-oxo-7,8-dihydropyrido[2,3-d]pyrimidin-2-yl)amino)pyridin-3-yl)piperazin-1-yl)acetamido)spiro[3.3]heptan-2-yl)amino)-N-(6-cyclopropyl-5-(dimethylamino)pyridin-2-yl)-6-(methylamino)nicotinamide] came in with an inhibition at 0.04 µM of under 30% and an inhibition at 0.2 µM of 50 to 80%. As for `CNc1ccc(C(=O)Nc2nc(C3CC3)ccc2C)c(NCCCCCNC(=O)CN2CCN(c3ccc(Nc4ncc5c(C)c(C(C)=O)c(=O)n(C6CCCC6)c5n4)nc3)CC2)n1` [CPD-61, 2-((5-(2-(4-(6-((6-Acetyl-8-cyclopentyl-5-methyl-7-oxo-7,8-dihydropyrido[2,3-d]pyrimidin-2-yl)amino)pyridin-3-yl)piperazin-1-yl)acetamido)pentyl)amino)-N-(6-cyclopropyl-3-methylpyridin-2-yl)-6-(methylamino)nicotinamide], the inhibition at 0.04 µM is under 30% and the inhibition at 0.2 µM is under 30%. The compound `CC(=O)c1c(C)c2cnc(Nc3ccc(N4CCN(C(=O)NCCC5CC(Nc6cc(Cl)ccc6C(=O)Nc6ccc(C)c(C7CC7)n6)C5)CC4)cn3)nc2n(C2CCCC2)c1=O` (stereo not shown) [CPD-256, 4-(6-((6-Acetyl-8-cyclopentyl-5-methyl-7-oxo-7,8-dihydropyrido[2,3-d]pyrimidin-2-yl)amino)pyridin-3-yl)-N-(2-(3-((5-chloro-2-((6-cyclopropyl-5-methylpyridin-2-yl)carbamoyl)phenyl)amino)cyclobutyl)ethyl)piperazine-1-carboxamide] returned an inhibition at 0.04 µM of under 30% and an inhibition at 0.2 µM of under 30%. Compound `CNc1ccc(C(=O)Nc2ccc(C3CC3)nn2)c(NCCCCCNC(=O)CN2CCN(c3ccc(Nc4ncc5c(C)c(C(C)=O)c(=O)n(C6CCCC6)c5n4)nc3)CC2)n1` [CPD-31, 2-((5-(2-(4-(6-((6-Acetyl-8-cyclopentyl-5-methyl-7-oxo-7,8-dihydropyrido[2,3-d]pyrimidin-2-yl)amino)pyridin-3-yl)piperazin-1-yl)acetamido)pentyl)amino)-N-(6-cyclopropylpyridazin-3-yl)-6-(methylamino)nicotinamide] gave an inhibition at 0.04 µM of under 30% and an inhibition at 0.2 µM of 50 to 80%. `CNc1ccc(C(=O)Nc2ccc(N(C)C)nn2)c(NCC2CCN(C(=O)CN3CCN(c4ccc(Nc5ncc6c(C)c(C(C)=O)c(=O)n(C7CCCC7)c6n5)nc4)CC3)CC2)n1` [CPD-145, 2-(((1-(2-(4-(6-((6-acetyl-8-cyclopentyl-5-methyl-7-oxo-7,8-dihydropyrido[2,3-d]pyrimidin-2-yl)amino)pyridin-3-yl)piperazin-1-yl)acetyl)piperidin-4-yl)methyl)amino)-N-(6-(dimethylamino)pyridazin-3-yl)-6-(methylamino)nicotinamide] displayed an inhibition at 0.04 µM of under 30% and an inhibition at 0.2 µM of 50 to 80%. `CNc1ccc(C(=O)Nc2ccc3c(cnn3C)n2)c(NCCCCCNC(=O)CN2CCN(c3ccc(Nc4ncc5c(C)c(C(C)=O)c(=O)n(C6CCCC6)c5n4)nc3)CC2)n1` [CPD-32] registered an inhibition at 0.04 µM of under 30% and an inhibition at 0.2 µM of under 30%.

As to `CNc1ccc(C(=O)Nc2cc(C3CC3)n(C)n2)c(NC2CC3(CC(NC(=O)CN4CCN(c5ccc(Nc6ncc7c(C)c(C(C)=O)c(=O)n(C8CCCC8)c7n6)nc5)CC4)C3)C2)n1` (stereo not shown) [CPD-98, 2-((6-(2-(4-(6-((6-Acetyl-8-cyclopentyl-5-methyl-7-oxo-7,8-dihydropyrido[2,3-d]pyrimidin-2-yl)amino)pyridin-3-yl)piperazin-1-yl)acetamido)spiro[3.3]heptan-2-yl)amino)-N-(5-cyclopropyl-1-methyl-1H-pyrazol-3-yl)-6-(methylamino)nicotinamide], the inhibition at 0.04 µM lay in the range of 30 to 50% and the inhibition at 0.2 µM lay in the range of 50 to 80%. In turn, `CNc1ccc(C(=O)Nc2ccc(C)c(C3CC3)n2)c(NCCCCCNC(=O)CN2CCN(c3ccc(Nc4ncc5c(C)c(C(C)=O)c(=O)n(C6CCCC6)c5n4)nc3)CC2)n1` [CPD-7, 2-((5-(2-(4-(6-((6-acetyl-8-cyclopentyl-5-methyl-7-oxo-7,8-dihydropyrido[2,3-d]pyrimidin-2-yl)amino)pyridin-3-yl)piperazin-1-yl)acetamido)pentyl)amino)-N-(6-cyclopropyl-5-methylpyridin-2-yl)-6-(methylamino)nicotinamide] yielded an inhibition at 0.04 µM of 50 to 80%.
